Measured values reported in patent US5866576A, “Epoxide-containing compounds” (Cell Therapeutics, Inc., priority 1997, dated 1999).
Like-named read-outs stand apart in the source and are kept apart here.

Columns and labels:
[1] = tested on: tumor necrosis factor (TNF) levels; conditions: cited from earlier work
[2] = tested on: PAPH (phosphatidic acid phosphohydrolase); assay: blocking of PAPH in a specific activation pathway; assay type: cell-based; conditions: pathway not involving PI; human mesangial cells, TNF
Description: The compounds of the invention, include inhibitors of subspecies of LPAAT in PAPH enzymes with substrate specificity for intermediates with 1,2-diunsaturated and 1-alkyl, 2-unsaturated subspecies. One representative example of such an inhibitor (although not within the genus of inventive compounds) is PTX. […] It should be emphasized that the compounds of the invention affect that subset of PAPH and LPAAT that relates to substrates with unsaturated fatty acids other than arachidonate in the sn-2 position, not the housekeeping forms of these enzymes that serve the PI pathway.

[3] = tested on: polymorphonuclear leukocytes; conditions: cited from earlier work; for chemotaxis in polymorphonuclear leukocytes: in response to a stimulator of chemotaxis
cerebral blood flow = conditions: in vivo; cited from earlier work
[4] = tested on: normal human bone marrow stromal cells (MSC); assay: human bone marrow stromal cell (MSC) proliferation in response to PDGF BB and IL-1α; assay type: cell-based; conditions: Table III, PDGF BB 50 ng/ml and IL-1α 10 ng/ml
Experimental: This example illustrates the effects of inventive compounds nos. 1114, 1413, 1560, 1565, 1594, 2518, 2548R, 2548S and 3503 as effective inhibitors of normal human bone marrow stromal cells (MSC) proliferation in response to Platelet Derived Growth Factor BB (PDGF B) and IL-1α (50 and 10 ng/ml, respectively).
MSC were obtained and malintained in exponential growth, released from a growth plate with trypsin and plated into 96 well tissue culture plates in the presence of Fibroblast Growth Factor (FGFβ) for 48 hours. Growth media were removed and the cells were washed once with serum free media. The cells were then incubated 20-24 hours in serum free media.
After incubation, inventive compounds were added to the cells at the appropriate concentration and then the cells again incubated for 1 hour. PDGF B and IL-1α were added to the cells along with 3H-thymidine and the cells again incubated for an additional 24 hours.
After 24 hours of incubation, the cells were then harvested to assess incorporation of ^3 H-thymidine into DNA (proliferation). From each harvested cell culture, an IC-50 for each inventive compound tested was determined. Therefore, a lower reported IC-50 value is indicatilve of greater activity of the invention compounds in inhibiting MSC proliferation. Table III illustrates IC-50 values (in μM) for invention compounds inhibiting MSC proliferation at very low concentrations of compound.

thymocytes = assay: IL-2 (ConA co-stimulated) induced proliferation of thymocytes; assay type: cell-based, mice; conditions: Mus musculus, Thymocyte, 96 h; Table II; ConA 0.25 ug/ml / IL2 20 ng/ml, 4 days
Experimental: This example illustrates the effects of inventive compounds nos. 1105, 1114, 1413, 1439, 1594, 2518, 2548R, 2548S, 2562 and 3503 as effective inhibitors of IL-2 induced proliferation of thymocytes. Single cell suspensions of thymus gland cells obtained from 4-6 week old mice were prepared. Two-hundred thousand cells were plated into individual wells of flat-bottom 96-well plates in RPMI-1640-10% FCS medium. The invention compounds were then added to the wells at varying concentrations and the cells incubated for 1-2 hours at 37° C.
Following this pre-incubation a mixture of Concanavalin A (ConA) and Interleukin-2 (IL2) was added to the experimental wells at a final concentration of (0.25 ug/ml ConA)/(20 ng/ml IL2). Appropriate positive and negative controls were set up on each plate. Each variable was set up in quadruplicate.
The plates were incubated for 4 days at 37° C. in a humidified CO2 incubator. On day 4 the wells were pulsed with 1 μCi of tritiated thymidine(3H-TdR) and the plates incubated for an additional 4 hours. The plates were then harvested and the incorporation of 3H-TdR was determined in a liquid scintillation counter. From the CPM obtained from each experimental well an IC-50 for each inventive compound tested was determined. Therefore, a lower reported IC-50 value is indicative of greater inhibition of IL-2-induced proliferation of thymocytes. Table II illustrates IC-50 values (in μM) for inventive compounds inhibiting proliferation at very low concentrations of compound.

[5] = tested on: LPS-induced TNF release in whole human blood; assay: LPS-induced TNF release in whole human blood (FIG. 14); assay type: cell-based; conditions: LPS 10 ng/ml, read-out: inhibition of TNF-α induction
Experimental: This example illustrates inhibitive effects of the inventive compounds on LPS-induced TNF release. Data collected is reported as percent inhibition of LPS induced TNF release in whole human blood as compared with control values of TNF release.
In this assay, whole blood was collected from a healthy human donor into Vacutainer tubes containing ACD citrate anti-coagulant. Compounds to be tested were diluted in RPMI medium and added (5 μl) to tubes containing whole blood (225 μl). The tubes were mixed and incubated for a maximum of 1 hour at 37° C. LPS Salmonella abortus equi was diluted in RPMI and added to samples at 20 μl per tube (10 ng/ml final concentration). The prepared tubes were mixed and incubated for 4-6 hours at 37° C. The reaction was terminated by adding 750 μl of RPMI to each tube, then centrifuged to remove cells. Supernatants are collected and stored overnight at 4° C. Supernatant samples are assayed for TNF release using commercial immunoassay kits.

lymphocytes = assay: mixed lymphocyte reaction (MLR), human lymphocytes (FIG. 12); assay type: cell-based
Experimental: This example illustrates an inhibitive effect of compound no. 1206 in a mixed lymphocyte reaction (MLR). This MNR is used to screen potentially immunosuppressive drugs. Lymphocytes (2×10^5) from normal human donors are grown for 6 days in the presence and absence (control) of inventive compound no. 1206. Tritiated thymidine is added and the lymphocytes grown for a final 6 hours. Incorporation of the tritiated thymidine occurs when the cells are in cell cycle. […] An experimentally determined IC50 value for compound no. 1206 is 70 μM.

SMILES: CC(=O)CCCCn1c(=O)c2c(ncn2C)n(C)c1=O [PTX, 1-(5-oxohexyl)-3,7-dimethylxanthine]
- TNF levels ([1]; normal volunteers): TNF levels were higher among PTX recipients
- TNF levels ([1]; with GM-CSF, patients undergoing allogeneic bone marrow transplant): decrease tumor necrosis factor (TNF) levels
- blocking of PAPH [2]: blocks PAPH in a specific activation pathway
- activity of certain cytokines to affect chemotaxis [3]: inhibit activity of certain cytokines to affect chemotaxis
- chemotaxis in polymorphonuclear leukocytes [3]: stimulate chemotaxis in polymorphonuclear leukocytes

SMILES: CC(O)CCCCn1c(=O)c2c(ncn2C)n(C)c1=O (centres unmarked) [Compound M1, 1-(5-hydroxyhexyl)-3,7-dimethylxanthine]
- chemotaxis in polymorphonuclear leukocytes [3]: stimulate chemotaxis in polymorphonuclear leukocytes
- cerebral blood flow (cerebral blood flow): increasing cerebral blood flow

SMILES: Cn1cnc2c1c(=O)n(CCCCCCCCCCC1CO1)c(=O)n2C (centres unmarked) [Compound 2518, 1-(11,12-Oxidodecyl)-3,7-dimethylxanthine]
- IC50 [4]: 16.7 µM
- IC50 (thymocytes): 3.4 µM
- inhibition at 50 µM [5]: 35%

SMILES: Cn1c(=O)c2ccccc2n(CCCCC2CO2)c1=O (centres unmarked) [Compound 1206, 1-(5,6-Oxidohexyl)-3-methylbenzoyleneurea]
- IC50 (lymphocytes): 70 µM
